Consider ten compounds from patent US8258295B2, “Triazine derivatives, compositions containing such derivatives, and methods of treatment of cancer and autoimmune diseases using such derivatives” (Prometic Biosciences Inc., priority 2007, dated 2012).

Like-named read-outs stand apart in the source and are kept apart here.

Broadly, the IC50 is the concentration that gives 50% inhibition. The term inhibition denotes the change of the read-out against control, counted positive when it falls.

The test system of experiment [1] is PC-3 human prostate carcinoma cell. Briefly: MTT cytotoxicity on PC-3. The class given is cell-based. The method, then: (§1) This assay was performed to determine the effect of compounds of the present invention on cell cytotoxicity. Cells were incubated in presence or absence of compounds in their respective conditioned media. After 24 hr or 72 hr incubation, 50 μl of 3-(4,5-dimethyl-2-thiazyl)-2,5-diphenyl-2H-tetrazolium bromide (MTT; 2 mg/ml) was added and further incubated for 4 hr. The supernatant was discarded and 100 μl of dimethylsulfoxide (DMSO) was added. Absorbance was read at 570 nm with a TecanSunrise ELISA plate reader. The control group consisted of cells without compounds and is referred to as 100% of viable cells. IC50 was determined using Prism software.
(§2) All compounds have weak effect on cell cytotoxicity. The predictive utility of cell based cytotoxicity assays to assess the potential in vivo anticancer activity of compounds with selected cancer cell lines is well established in the art and the use of whole cells, instead of isolated protein receptors or enzymes, provides a more reliable determination of activity. See, for example, Paull et al. (J. Nat'l Cancer Inst. 81:1088-1092, 1989); Monks et al. (J. Nat'l Cancer Inst. 83:757-766, 1991); Bandes et al. (J. Nat'l Cancer Inst. 86:770-775, 1994); and Kamate et al. (Int'l J. Cancer 100:571-579, 2002).

In experiment [2] the test system is P815 murine mastocytoma cell. Put plainly: MTT cytotoxicity on P815. It is filed as cell-based. The conditions noted are these: Mus musculus. Here is the method:
as §1, §2

Experiment [3] deals with TNFα (Homo sapiens, UniProt P01375). Put plainly: TNFα-induced apoptosis in WEHI-13VAR cell line. The conditions noted are these: for inhibition at 10 µM: 1 × 10^−5 M; for inhibition at 20 µM: 2 × 10^−5 M; for inhibition at 40 µM: 4 × 10^−5 M; for inhibition at 5 µM: 5 × 10^−6 M. It is filed as cell-based. The method, then: Effect of compounds on TNFα-induced apoptosis was measured by a standard biological assay using WEHI-13VAR cells. These cells undergo apoptosis when they are incubated in the presence of TNFα and actinomycin D. 2×10^4 WEHI-13VAR cells were incubated in RPMI supplemented with 1% sodium pyruvate and 10% FBS, overnight at 37° C. for cell adherence. The cells were then cultured in the presence of 1 μg/ml of actimomycin D ([…]) and 0.04 nM TNFα with or without compounds at 37° C. After 16 hr to 24 hr, 50 μl of a solution of 2 mg/ml of MIT was added to each well and the plate was then incubated for 4 hr at 37° C. Only viable cells metabolize MTT to form formazan salt, which is detectable by the measurement of absorbance at 570 nm. After the incubation, the plate was inverted to remove medium and dead cells. 150 μDMSO was added to each well to stop the reaction and solubilize the formazan salt. Optical density was read on a Bio-Tek EL 800 UV microplate reader. A decrease in the optical density is direct evidence of cell apoptosis induced by TNFα. Compounds were also compared to the activity of an anti-TNFα neutralizing antibody.
TNFα, sequence (P01375 77-233 limits assumed, species assumed): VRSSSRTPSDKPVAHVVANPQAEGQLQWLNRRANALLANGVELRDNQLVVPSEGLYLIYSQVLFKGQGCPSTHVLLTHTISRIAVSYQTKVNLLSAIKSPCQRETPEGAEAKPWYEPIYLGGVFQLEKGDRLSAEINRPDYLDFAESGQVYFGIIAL

For experiment [4], the system named is oxazolone-induced delayed-type hypersensitivity (DTH). Put plainly: Oxazolone-induced delayed-type hypersensitivity (DTH) in mice. The class given is in vivo. Here is the method:
Compounds were tested for their ability to treat oxazolone-induced delayed-type hypersensitivity (DTH) in mice. […] On day 0, day 1, and day 2, mice were treated by intravenous (IV) or oral (PO) administrations of the vehicle (control) or methotrexate (MTX; positive control/IV) or hydrocortisone (positive control/PO) or the compound at concentration lower than or equal to 50 mg/kg or as specified. Mice were challenged with an application of 50 μl of oxazolone on the surface of the right ear (first challenge, day 3; second challenge, day 10). Ear thickness was measured on day 4 to day 7, and on day 11 to 14. Redness and crust formation was also observed. Mice were sacrificed on day 14. TDTH (CD4) cells play an important role in regulating the intensity of the DTH response. Compounds may exert an inhibitory influence on the DTH response through its inhibition of T-cell activation and DNA, RNA, and/or protein synthesis.

For experiment [5], the system named is NHDF (normal human dermal fibroblast). Put plainly: MTT cytotoxicity on NHDF. It is filed as cell-based. The method, then: as §1, §2
The test system of experiment [6] is HUVEC (human umbilical vein endothelial cell). Briefly: MTT cytotoxicity on HUVEC. It is filed as cell-based. Here is the method:
as §1, §2

Experiment [7] concerns adjuvant-induced arthritis (AIA). Put plainly: Freund's adjuvant-induced arthritis (AIA) in Lewis rats. The class given is in vivo. The conditions noted are these: female Lewis rats, oral administration; FIG. 18. The method, then: AIA was induced in female Lewis rats by the injection of lyophilized Mycobacterium butyricum suspended in mineral oil into the footpad. The development of arthritis was monitored over a 3-week period post-adjuvant injection. Inflammation peaks at day 3 following the adjuvant administration. Immune activation appears around day 10 to day 16. Compounds were orally administered from day −3 to day 21. Body weight was recorded. The arthritis index, which is a measure of inflammation (edema), redness, and stiffness of the articulations, was used to monitor the development of the disease. The degree of arthritis was determined by measuring two perpendicular diameters of the ankles in the mediolateral and dorsoventral planes using a caliper. Joint circumference in millimeters is then calculated using a geometric formula.

The test system of experiment [8] is LPS-induced inflammation in the rat air-pouch model. Briefly: LPS-induced inflammation in rat air-pouch model. It is filed as in vivo, rats. The conditions noted are these: IV, pouch exudate. The source says: LPS-induced inflammation in the rat air-pouch model is believed to mimic the pathological process occurring in joint diseases such as arthritis. This is because the connective tissues formed along the air pouch are similar to those found in chronic joint diseases. LPS-induced inflammation and chronic joint diseases share other features, including markedly elevated PGE2, neutrophil infiltration, cytokine formation, and tissue damage.
An air cavity was produced at day −6 by subcutaneous injection of 20 ml of sterile air into the intrascapular area of the back of male Lewis rats (175 to 200 g). An additional 10 ml of air was injected into the cavity at day −3 to keep the space open. At day 0, compounds were administered intravenously and one hour later lipopolysaccharide (LPS: 2.5 ml of 2 μg/ml in PBS) was injected into the pouch to produce an inflammatory reaction. […] The pouch fluid was collected. The volume of exudates was measured and the number of leukocytes present in the exudates was determined with a Coulter counter. The differential count was determined by Wright-Giemsa staining. PGE2, LTB4, MCP, and TNFα were determined in the pouch exudates by specific ELISAs.

Where [9] appears, read: 24 hr culture, read-out: IC50 of 24-hour culture PC-3.
The mark [10] stands for this setting: 72 hr culture, read-out: IC50 of 72-hour culture PC-3.
Where [11] appears, read: 24 hr culture, read-out: IC50 of 24-hour culture P815.
Where [12] appears, read: 72 hr culture, read-out: IC50 of 72-hour culture P815.

For the compound `NCCCCCNc1nc(NCCc2ccc(S(N)(=O)=O)cc2)nc(Nc2ccc(F)cc2)n1` [Compound VII], the IC50 in experiment [1] (setting [9]) is 17.7 µM. In addition, in experiment [1] (setting [10]), the IC50 stood at 14.1 µM. Also, the IC50 in experiment [2] (setting [11]) was 12.6 µM. Besides, the IC50 in experiment [2] (setting [12]) came out at 4 µM. For the same compound, in experiment [3], the inhibition at 10 µM amounted to 65.8%, the inhibition at 20 µM came to 99.9%, the inhibition at 40 µM was found to be 118% and the inhibition at 5 µM came out at 30%.

With `NCCCCNc1nc(NCCc2ccc(S(N)(=O)=O)cc2)nc(Nc2cccc(F)c2)n1` [Compound IX], in experiment [3], the inhibition at 10 µM came out at 29.8%, the inhibition at 20 µM worked out at 46.7%, the inhibition at 40 µM was found to be 65.5% and the inhibition at 5 µM stood at 13.2%.

`CN(C)S(=O)(=O)c1ccc(CCNc2nc(NCCCCCN)nc(Nc3cccc(F)c3)n2)cc1` [Compound III]: the IC50 in experiment [1] (setting [9]) worked out at 30.1 µM; in experiment [1] (setting [10]), 27.6 µM; in experiment [2] (setting [11]) it was 13.6 µM; in experiment [2] (setting [12]), 5.5 µM. In addition, the inhibition at 10 µM in experiment [3] amounted to 52%. Also, in experiment [3], the inhibition at 20 µM is 89.7%. Further, the inhibition at 5 µM in experiment [3] was 20.4%. Also, the “inflammation (ear thickness) after DTH” value in experiment [4] (oral 50 mg/kg, first challenge of oxazolone) was “significant reduction of the inflammation”; in experiment [4] (oral 50 mg/kg, second challenge of oxazolone), “significant reduction of the inflammation”.

Take `CN(C)S(=O)(=O)c1ccc(CCNc2nc(NCCCCCN)nc(Nc3ccc(F)cc3)n2)cc1` [Compound X]: in experiment [3], the inhibition at 10 µM was 44.4%, the inhibition at 20 µM worked out at 79.9%, the inhibition at 40 µM was determined as 53.9% and the inhibition at 5 µM amounted to 19.4%. For the same compound, the “inflammation (ear thickness) after DTH” value in experiment [4] (IV 5 mg/kg, first challenge of oxazolone) is given as “significant reduction of the inflammation”.

Regarding `NCCCCCNc1nc(Nc2cccc(F)c2)nc(-c2cccc(F)c2)n1` [XII], the IC50 in experiment [1] (setting [10]) is 9 µM; in experiment [2] (setting [12]), 21.7 µM.

For `NCCCCCNc1nc(Nc2ccc(S(N)(=O)=O)cc2)nc(Nc2cccc(F)c2)n1` [Compound VIII], the IC50 in experiment [1] (setting [9]) stood at 31 µM. Further, the IC50 in experiment [1] (setting [10]) amounted to 5.2 µM. In addition, the IC50 in experiment [2] (setting [11]) came to 10.9 µM. Also, in experiment [2] (setting [12]), the IC50 came to 2.9 µM. Also, in experiment [3], the inhibition at 10 µM turned out to be 35.6%, the inhibition at 20 µM is 48.1%, the inhibition at 40 µM is 55.6% and the inhibition at 5 µM was 17%.

For `NCCCCCNc1nc(NCCc2ccc(C(N)=O)cc2)nc(Nc2cccc(F)c2)n1` [Compound VI], in experiment [3], the inhibition at 10 µM is 54.8%, the inhibition at 20 µM came to 74.1%, the inhibition at 40 µM was 89.5% and the inhibition at 5 µM came out at 28.2%.

On to `NCCCCCNc1nc(NCCc2ccc(N)cc2)nc(Nc2ccc(F)cc2)n1` [Compound IV], for which the IC50 was 82.1 µM in experiment [5] (24 hr culture, read-out: IC50 of 24-hour culture NHDF); 42.5 µM in experiment [5] (72 hr culture, read-out: IC50 of 72-hour culture NHDF); 51.3 µM in experiment [6] (24 hr culture, read-out: IC50 of 24-hour culture HUVEC); over 100 µM in experiment [6] (72 hr culture, read-out: IC50 of 72-hour culture HUVEC); 56.6 µM in experiment [1] (setting [9]); 51.9 µM in experiment [1] (setting [10]). Moreover, in experiment [2] (setting [11]), the IC50 was determined as 33 µM. Moreover, in experiment [3], the inhibition at 10 µM was found to be 13.1%. Besides, in experiment [3], the inhibition at 20 µM stood at 31.6%. Also, the inhibition at 40 µM in experiment [3] was 47.2%. For the same compound, in experiment [3], the inhibition at 5 µM came out at 3.7%. Besides, the “inflammation (ear thickness) after DTH” value in experiment [4] (oral 50 mg/kg, FIG. 15) is reported as “significant reduction of the inflammation”.

For `NCCCCCNc1nc(NCC(O)c2ccc(O)cc2)nc(Nc2ccc(F)cc2)n1` (stereo not shown) [Compound XI], in experiment [3], the inhibition at 10 µM was 14.6%, the inhibition at 20 µM was 23.7%, the inhibition at 40 µM was 35% and the inhibition at 5 µM came to 9.9%. The “inflammation (ear thickness) after DTH” value in experiment [4] (IV 25 mg/kg, first challenge of oxazolone) is given as “significant reduction of the inflammation”.

As for `COc1ccc2c(c1)c(CC(=O)O)c(C)n2C(=O)c1ccc(Cl)cc1` [indomethacin, reference compound], the “severity of arthritis (inflammatory index)” value in experiment [7] is on record as “significant reduction in the severity of arthritis”. Further, the “PGE2 production induced by LPS” value in experiment [8] (twelve hours after induction, FIG. 21B) is “significant inhibition”; in experiment [8] (two hours after induction, FIG. 20B) it was “significant inhibition”. The “TNFα production induced by LPS” value in experiment [8] (twelve hours post-LPS induction, FIG. 21A) is given as “weak inhibition”; in experiment [8] (two hours after induction, FIG. 20A), “increase the concentration of TNFα”. Further, the “LTB4 production induced by LPS” value in experiment [8] (two hours after induction, FIG. 20C) is on record as “did not affect the production of LTB4”. Further, the “MCP-1 production induced by LPS” value in experiment [8] (two hours after induction, FIG. 20D) is listed as “significant increase”.
